Data taken from BindingDB's records for patent US20230322769 (Jiangsu Chia Tai Fenghai Pharmaceutical, 2023).
“And” between values parts separate entries of the source, which are not always exact repeats. Equal entries are not always repeated.

Assays:
[1] = molecular target: Proto-oncogene tyrosine-protein kinase receptor Ret [V804M] (Human, UniProt P07949, V804M); test: Inhibition of RET Family Kinases Activity
[2] = molecular target: Proto-oncogene tyrosine-protein kinase receptor Ret [M918T] (Homo sapiens, UniProt P07949, M918T); test: Inhibition of RET Family Kinases Activity
Sequence of Proto-oncogene tyrosine-protein kinase receptor Ret [M918T] (P07949 29-1114 M918T limits assumed): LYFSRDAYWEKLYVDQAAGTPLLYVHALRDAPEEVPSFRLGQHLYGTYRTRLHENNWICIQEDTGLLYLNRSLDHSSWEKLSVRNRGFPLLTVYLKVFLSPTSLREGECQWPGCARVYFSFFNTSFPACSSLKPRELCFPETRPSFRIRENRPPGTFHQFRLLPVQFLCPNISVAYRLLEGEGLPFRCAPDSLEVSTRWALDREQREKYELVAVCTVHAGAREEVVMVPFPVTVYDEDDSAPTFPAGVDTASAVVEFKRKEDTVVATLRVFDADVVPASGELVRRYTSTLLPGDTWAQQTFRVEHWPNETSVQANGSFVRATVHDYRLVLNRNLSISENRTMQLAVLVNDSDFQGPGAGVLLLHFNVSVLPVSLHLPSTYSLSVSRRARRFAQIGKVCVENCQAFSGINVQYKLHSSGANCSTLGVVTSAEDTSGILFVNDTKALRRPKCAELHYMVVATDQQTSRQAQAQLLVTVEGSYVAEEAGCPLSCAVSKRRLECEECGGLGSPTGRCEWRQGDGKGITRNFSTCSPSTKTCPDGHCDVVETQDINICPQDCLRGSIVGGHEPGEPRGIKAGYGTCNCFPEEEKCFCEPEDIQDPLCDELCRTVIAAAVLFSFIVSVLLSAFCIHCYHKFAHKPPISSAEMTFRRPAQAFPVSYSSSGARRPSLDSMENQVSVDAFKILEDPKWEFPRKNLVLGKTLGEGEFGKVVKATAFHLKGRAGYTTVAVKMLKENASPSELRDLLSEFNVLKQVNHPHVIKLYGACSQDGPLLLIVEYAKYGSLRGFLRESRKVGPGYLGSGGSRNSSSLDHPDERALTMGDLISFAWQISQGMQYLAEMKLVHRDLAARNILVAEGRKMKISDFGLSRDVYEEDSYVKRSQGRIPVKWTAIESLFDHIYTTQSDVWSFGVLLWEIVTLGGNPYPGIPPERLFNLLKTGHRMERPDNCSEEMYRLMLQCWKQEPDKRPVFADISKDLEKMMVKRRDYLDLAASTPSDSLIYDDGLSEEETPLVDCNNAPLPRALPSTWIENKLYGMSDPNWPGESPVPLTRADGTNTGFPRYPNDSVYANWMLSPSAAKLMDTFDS

[3] = molecular target: Proto-oncogene tyrosine-protein kinase receptor Ret (Homo sapiens, UniProt P07949); test: Inhibition of RET Family Kinases Activity
Sequence of Proto-oncogene tyrosine-protein kinase receptor Ret (P07949 whole entry): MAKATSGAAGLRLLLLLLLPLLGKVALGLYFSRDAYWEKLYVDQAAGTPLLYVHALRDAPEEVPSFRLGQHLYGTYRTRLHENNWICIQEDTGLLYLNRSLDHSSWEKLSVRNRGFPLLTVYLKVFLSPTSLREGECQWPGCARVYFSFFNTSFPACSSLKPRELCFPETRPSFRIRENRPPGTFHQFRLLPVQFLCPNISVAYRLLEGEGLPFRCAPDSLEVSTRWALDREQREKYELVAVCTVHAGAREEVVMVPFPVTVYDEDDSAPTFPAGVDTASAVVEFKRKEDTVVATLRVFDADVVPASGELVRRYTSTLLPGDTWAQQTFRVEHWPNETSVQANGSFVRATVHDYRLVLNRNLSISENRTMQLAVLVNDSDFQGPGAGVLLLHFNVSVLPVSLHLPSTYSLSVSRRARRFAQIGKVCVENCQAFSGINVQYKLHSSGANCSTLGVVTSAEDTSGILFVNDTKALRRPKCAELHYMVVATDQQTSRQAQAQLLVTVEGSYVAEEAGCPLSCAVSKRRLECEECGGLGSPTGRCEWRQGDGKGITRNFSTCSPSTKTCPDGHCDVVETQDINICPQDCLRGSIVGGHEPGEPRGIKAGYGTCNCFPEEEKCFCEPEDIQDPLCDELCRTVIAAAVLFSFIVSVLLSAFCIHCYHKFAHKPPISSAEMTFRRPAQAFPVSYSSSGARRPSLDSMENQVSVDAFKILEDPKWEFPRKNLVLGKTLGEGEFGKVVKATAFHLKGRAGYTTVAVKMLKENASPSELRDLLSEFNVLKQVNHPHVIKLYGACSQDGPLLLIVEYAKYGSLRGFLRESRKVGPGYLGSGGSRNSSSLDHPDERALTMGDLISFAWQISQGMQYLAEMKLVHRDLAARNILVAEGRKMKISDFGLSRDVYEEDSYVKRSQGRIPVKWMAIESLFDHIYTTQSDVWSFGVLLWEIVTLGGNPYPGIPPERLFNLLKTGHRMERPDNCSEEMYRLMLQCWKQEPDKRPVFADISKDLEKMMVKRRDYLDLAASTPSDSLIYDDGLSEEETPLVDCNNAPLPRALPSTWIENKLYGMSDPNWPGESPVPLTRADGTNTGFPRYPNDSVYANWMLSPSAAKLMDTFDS

[4] = molecular target: Vascular endothelial growth factor receptor 2 (Homo sapiens, UniProt P35968); test: Inhibition of RET Family Kinases Activity
Sequence of Vascular endothelial growth factor receptor 2 (P35968 whole entry, the tested form may be a part): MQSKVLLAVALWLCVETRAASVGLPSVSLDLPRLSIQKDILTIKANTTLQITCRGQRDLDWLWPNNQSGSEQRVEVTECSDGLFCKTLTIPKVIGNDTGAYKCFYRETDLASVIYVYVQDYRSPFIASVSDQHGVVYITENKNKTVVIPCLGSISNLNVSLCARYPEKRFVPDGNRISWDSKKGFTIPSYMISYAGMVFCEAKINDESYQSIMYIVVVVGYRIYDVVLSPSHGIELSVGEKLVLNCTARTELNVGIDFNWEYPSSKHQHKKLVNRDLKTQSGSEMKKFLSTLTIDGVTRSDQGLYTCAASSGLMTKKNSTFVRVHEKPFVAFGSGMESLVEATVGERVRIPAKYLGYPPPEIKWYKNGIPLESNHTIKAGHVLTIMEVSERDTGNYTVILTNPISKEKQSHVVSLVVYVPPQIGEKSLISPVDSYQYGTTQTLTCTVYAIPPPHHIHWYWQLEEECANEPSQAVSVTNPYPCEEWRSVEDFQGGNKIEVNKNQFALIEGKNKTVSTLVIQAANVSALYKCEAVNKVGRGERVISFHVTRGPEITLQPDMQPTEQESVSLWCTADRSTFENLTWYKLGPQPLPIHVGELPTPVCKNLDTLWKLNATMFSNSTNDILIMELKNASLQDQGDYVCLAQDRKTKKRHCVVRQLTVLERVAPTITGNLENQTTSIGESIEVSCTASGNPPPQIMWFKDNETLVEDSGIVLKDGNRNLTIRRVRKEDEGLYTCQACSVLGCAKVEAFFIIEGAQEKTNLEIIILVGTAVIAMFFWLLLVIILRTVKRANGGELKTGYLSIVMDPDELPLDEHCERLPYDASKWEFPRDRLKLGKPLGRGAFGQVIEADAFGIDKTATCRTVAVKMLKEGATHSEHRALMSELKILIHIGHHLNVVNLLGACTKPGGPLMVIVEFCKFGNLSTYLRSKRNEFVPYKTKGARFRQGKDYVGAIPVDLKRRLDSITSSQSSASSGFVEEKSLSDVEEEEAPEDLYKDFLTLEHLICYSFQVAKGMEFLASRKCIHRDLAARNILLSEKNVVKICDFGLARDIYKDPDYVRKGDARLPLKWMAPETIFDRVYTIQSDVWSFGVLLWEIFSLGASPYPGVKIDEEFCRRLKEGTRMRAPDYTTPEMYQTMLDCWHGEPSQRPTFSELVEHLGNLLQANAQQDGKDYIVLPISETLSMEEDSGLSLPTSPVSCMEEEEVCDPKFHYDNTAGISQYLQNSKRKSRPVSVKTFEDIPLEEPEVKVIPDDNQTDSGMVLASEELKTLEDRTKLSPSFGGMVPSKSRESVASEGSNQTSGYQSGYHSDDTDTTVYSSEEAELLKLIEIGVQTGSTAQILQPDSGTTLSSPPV

[5] = molecular target: Coiled-coil domain-containing protein 6/Proto-oncogene tyrosine-protein kinase receptor Ret (Homo sapiens, UniProt P07949); test: Inhibition of RET Family Kinases Activity
Sequence of Coiled-coil domain-containing protein 6/Proto-oncogene tyrosine-protein kinase receptor Ret (P07949 whole entry, the tested form may be a part): as the sequence (P07949 whole entry) above
Sequence of Coiled-coil domain-containing protein 6/Proto-oncogene tyrosine-protein kinase receptor Ret (Q16204 whole entry, further chain, the tested form may be a part): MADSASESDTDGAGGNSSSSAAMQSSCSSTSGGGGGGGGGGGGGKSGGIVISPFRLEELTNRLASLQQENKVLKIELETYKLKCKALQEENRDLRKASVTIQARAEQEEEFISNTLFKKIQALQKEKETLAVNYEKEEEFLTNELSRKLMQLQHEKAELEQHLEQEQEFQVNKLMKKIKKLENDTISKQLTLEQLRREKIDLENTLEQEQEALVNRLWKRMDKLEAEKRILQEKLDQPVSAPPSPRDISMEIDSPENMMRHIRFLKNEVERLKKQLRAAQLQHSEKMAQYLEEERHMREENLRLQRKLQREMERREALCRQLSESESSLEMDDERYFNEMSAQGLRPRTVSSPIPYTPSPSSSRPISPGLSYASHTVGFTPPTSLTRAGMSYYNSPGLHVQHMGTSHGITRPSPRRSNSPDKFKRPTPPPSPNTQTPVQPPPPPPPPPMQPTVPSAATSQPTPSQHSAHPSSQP

[6] = molecular target: Potassium voltage-gated channel subfamily H member 2 (Homo sapiens, UniProt Q12809); test: Inhibition of hERG Potassium Channel
Description: Whole-cell patch-clamp recording was carried out. […] This procedure was repeated every 20 seconds. The hERG tail current was a pure hERG current.

Sequence of Proto-oncogene tyrosine-protein kinase receptor Ret [V804M] (P07949 29-1114 V804M limits assumed): as the sequence (P07949 29-1114 M918T limits assumed) above, with V776M, T890M counted along it

Structure (SMILES): COc1ccc(CN2C3CC2CN(c2ccc(-c4cc(N5CC6CC(C5)N6C)cn5ncc(C#N)c45)cn2)C3)cn1 [US20230322769, Compound 17]
- IC50 [1]: 3.82 nM
- IC50 [2]: 1.7 nM
- IC50 [3]: 5.5 nM
- IC50 [4]: 551 nM

Structure (SMILES): COc1ccc(CN(C)CCN(C)c2ccc(-c3cc(-c4cnn(C)c4)cn4ncc(C#N)c34)cn2)cn1 [US20230322769, Compound 17-a]
- IC50 [5]: 17.2 nM
- IC50 [1]: 128 nM
- IC50 [2]: 48.4 nM
- IC50 [3]: 27.9 nM

Structure (SMILES): COc1ccc(CN2C3CC2CN(c2ccc(-c4cc(N5CCOC(C)C5)cn5ncc(C#N)c45)cn2)C3)cn1 (stereo unspecified) [US20230322769, Compound 83]
- IC50 [3]: 15.8 nM

Structure (SMILES): COc1ccc(CN2C3CC2CN(c2ccc(-c4cc(N5CCOC[C@@H]5C)cn5ncc(C#N)c45)cn2)C3)cn1 [US20230322769, Compound 84]
- IC50 [3]: 24.8 nM

Structure (SMILES): COc1ccc(CN2C3CC2CN(c2ccc(-c4cc(-c5cc6n(n5)CCC6)cn5ncc(C#N)c45)cn2)C3)cn1 [US20230322769, Compound 66]
- IC50 [1]: 4.33 nM and 7.69 nM
- IC50 [2]: 4.06 nM
- IC50 [3]: 2.24 nM

Structure (SMILES): COc1ccc(CN2C3CC2CN(c2ccc(-c4cc(N5CC6CC(C5)N6)cn5ncc(C#N)c45)cn2)C3)cn1 [US20230322769, Compound 16]
- IC50 [5]: 3.65 nM
- IC50 [1]: 4.78 nM
- IC50 [2]: 2.42 nM
- IC50 [3]: 8.4 nM
- IC50 [4]: 406 nM

Structure (SMILES): COc1ccc(CN2C3CC2CN(c2ccc(-c4cc(N5CC6(COC6)C5)cn5ncc(C#N)c45)cn2)C3)cn1 [US20230322769, Compound 88]
- IC50 [3]: 7.22 nM
- IC50 [4]: 96.9 nM

Structure (SMILES): COc1ccc(CN2C3CC2CN(c2ccc(-c4cc(N5CC(C)(C)OC5C5CC5)cn5ncc(C#N)c45)cn2)C3)cn1 (stereo unspecified) [US20230322769, Compound 80]
- IC50 [3]: 21.6 nM
- IC50 [4]: 566 nM

Structure (SMILES): COc1ccc(CN2C3CC2CN(c2ccc(-c4cc(N5CCP(C)(=O)CC5)cn5ncc(C#N)c45)cn2)C3)cn1 [US20230322769, Compound 20]
- IC50 [5]: 2.14 nM
- IC50 [1]: 3.23 nM
- IC50 [2]: 1.45 nM
- IC50 [3]: 4.1 nM
- IC50 [4]: 340 nM

Structure (SMILES): COc1ccc(CN2C3CC2CN(c2ccc(-c4cc(N(CC5CC5)CC(C)(C)O)cn5ncc(C#N)c45)cn2)C3)cn1 [US20230322769, Compound 81]
- IC50 [3]: 193 nM
- IC50 [4]: 612 nM

Structure (SMILES): COc1ccc(CN2CCN(c3nc(-c4cc(-c5cnn(C)c5)cn5ncc(C#N)c45)cs3)CC2)cn1 [US20230322769, Compound 39]
- IC50 [1]: 860 nM
- IC50 [2]: 326 nM
- IC50 [3]: 98.3 nM

Structure (SMILES): COc1ccc(CN2C3CC2CN(c2ccc(-c4cc(N5CCCC(O)C5)cn5ncc(C#N)c45)cn2)C3)cn1 (stereo unspecified) [US20230322769, Compound 82]
- IC50 [3]: 10.7 nM
- IC50 [4]: 280 nM

Structure (SMILES): COc1ccc(CN2C3CC2CN(c2ccc(-c4cc(NCC(C)(C)O)cn5ncc(C#N)c45)cn2)C3)cn1 [US20230322769, Compound 78]
- IC50 [5]: 4.6 nM
- IC50 [1]: 8.23 nM
- IC50 [2]: 5.47 nM
- IC50 [3]: 1.28 nM
- IC50 [4]: 51.9 nM

Structure (SMILES): COc1ccc(CN2C3CC2CN(c2ccc(-c4cc(N5CCNCC5)cn5ncc(C#N)c45)cn2)C3)cn1 [US20230322769, Compound 96]
- IC50 [3]: 5.24 nM
- IC50 [4]: 240 nM

Structure (SMILES): COc1ccc(CN2CCC(n3cc(-c4cc(-c5cnn(C)c5)cn5ncc(C#N)c45)cn3)CC2)cn1 [US20230322769, Compound 43]
- IC50 [1]: 242 nM
- IC50 [2]: 53.1 nM
- IC50 [3]: 30.9 nM

Structure (SMILES): COc1ccc(CN2C3CC2CN(c2ccc(-c4cc(N5CC(C)(O)C5)cn5ncc(C#N)c45)cn2)C3)cn1 [US20230322769, Compound 86]
- IC50 [3]: 4.56 nM
- IC50 [4]: 71.3 nM

Structure (SMILES): COc1ccc(CN2C3CC2CN(c2ccc(-c4cc(N5CCOCC5)cn5ncc(C#N)c45)cn2)C3)cn1 [US20230322769, Compound 65]
- IC50 [5]: 0.52 nM
- IC50 [1]: 3.37 nM
- IC50 [2]: 0.92 nM
- IC50 [3]: 1.09 nM
- IC50 [4]: 92.8 nM

Structure (SMILES): COc1ccc(CN2C3CC2CN(c2ccc(-c4cc(N5CCOC[C@H]5C)cn5ncc(C#N)c45)cn2)C3)cn1 [US20230322769, Compound 85]
- IC50 [3]: 19 nM

Structure (SMILES): COc1ccc(CN2CCCN(c3ccc(-c4cc(-c5cc6n(n5)CCC6)cn5ncc(C#N)c45)cn3)CC2)cn1 [US20230322769, Compound 70]
- IC50 [6]: 4740 nM
- IC50 [5]: 30.7 nM
- IC50 [1]: 111 nM
- IC50 [2]: 42.8 nM
- IC50 [3]: 26.6 nM
- IC50 [4]: 387 nM

Structure (SMILES): COc1ccc(CN2C3CC2CN(c2ccc(-c4cc(N5CCN(C)CC5)cn5ncc(C#N)c45)cn2)C3)cn1 [US20230322769, Compound 94]
- IC50 [5]: 3 nM
- IC50 [2]: 2.78 nM
- IC50 [4]: 154 nM

Structure (SMILES): COc1ccc(C(=O)N2CCN(c3ccc(-c4cc(-c5cc6n(n5)CCC6)cn5ncc(C#N)c45)cn3)CC2)cn1 [US20230322769, Compound 68]
- IC50 [5]: 6.01 nM
- IC50 [1]: 26.3 nM
- IC50 [2]: 10.7 nM
- IC50 [3]: 12.6 nM
- IC50 [4]: 186 nM

Structure (SMILES): COc1ccc(CN2C3CC2CN(c2ccc(-c4cc(N5CCN(C)C(=O)C5)cn5ncc(C#N)c45)cn2)C3)cn1 [US20230322769, Compound 89]
- IC50 [5]: 3.04 nM
- IC50 [1]: 4.72 nM
- IC50 [2]: 1.47 nM
- IC50 [3]: 0.674 nM
- IC50 [4]: 157 nM
